Data on 23 compounds can be found in PubChem BioAssay (NCI).

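Tested at 5 concentrations; 48 h exposure; 96-well plates; endpoints linearly interpolated, else capped at highest concentration. The concentration for 50% growth inhibition is given as GI50. TGI denotes the concentration required for complete inhibition of growth.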

The subject of the first test is 786-0 renal. The test can be described thus: NCI tumour cell line growth inhibition, 48 h.
Compound `Cc1cccc(C(C)(C)C)c1NC(=O)C(=O)Cc1nc2ccccc2s1` showed a TGI above 100 µM.
For the compound `CC(=O)OCCc1cccnc1/C=N/O`, the TGI was above 100 µM.
On to `CCC1CCC2CCCC(C)N12` (stereo not drawn), for which the TGI is above 100 µM.
On to `CN1CCCNCCN(CCc2ccccn2)CCCN(C)CC1`, for which the TGI came to 53.9 µM.
Turning to `CC1=C(CCCOC(=O)NCCCl)C2=C(C)C3(CC3)[C@@](C)(O)C(=O)C2=C1`, the GI50 was 2.71 µM and the TGI was 8.16 µM.
Take `C[C@]12CCC(=O)C=C1CC[C@@H]1C2CC[C@]2(C)NC(=O)C(C#N)CC12` (stereo partly drawn): the TGI is above 100 µM.
On to `CN=C1NC(=O)/C(=C/c2ccc3ncccc3c2)S1`, for which the GI50 was 10.7 µM and the TGI is above 25 µM.
Compound `CC1=C[C@@H]2Cc3occc3C(C)(C)[C@@H]2CC1` returned a TGI of 34.1 µM.
In turn, `O=C(O)c1cc(S(=O)(=O)N=NC=C2c3ccccc3N(O)c3ccccc32)ccc1O` registered a TGI of 27.7 µM.
For the compound `O=c1[nH]c(=O)n(C2CC(O)C(CO)O2)cc1C#Cc1c(F)c(F)c(F)c(F)c1F` (stereo not drawn), the TGI was above 100 µM.
In turn, `O=S(=O)(O)C(O)/C=C/c1ccccc1` (stereo not drawn) showed a TGI above 100 µM.
For the compound `NS(=O)(=O)c1ccc(-n2nc(-c3ccc(Br)cc3)ccc2=O)cc1`, the GI50 was above 10 µM and the TGI was above 10 µM.
Consider `S=C1NCCN1C1=Nc2ccccc2CO1`, for which the GI50 is above 100 µM and the TGI is above 100 µM.
`COc1ccc(/C=C(/C(=O)O)c2cc(OC)c(OC)c(OC)c2)cc1` returned a TGI above 100 µM.
`COc1cc2c(cc1O)[C@H](Cc1ccc(Oc3cc(C[C@H]4c5cc(OC)c(OC)cc5CCN4C)ccc3OC)cc1)NCC2`: the TGI stood at 25.2 µM.
Compound `OCc1c(-c2cccc3ccccc23)sc(-c2cccc3ccccc23)c1CO` gave a TGI of 27.4 µM.
With `COc1ccc(-n2cc(-c3ccc(OC)c(OC)c3)[nH]c2=S)cc1Cl`, the GI50 is 52.3 µM and the TGI was above 100 µM.
As for `Clc1cccc(NC=Nc2ccc(-c3nc4ccccc4s3)cc2)c1`, the GI50 is 10.6 µM and the TGI was found to be 18.6 µM.
`C[Si](C)(C)c1ccc(CC2(Cc3ccc([Si](C)(C)C)cc3)CCNC2)cc1` had a TGI of 3.38 µM.
The compound `Cc1cc(C)nc(NS(=O)(=O)c2ccc(NC(=O)c3cccc4c(=O)c5ccccc5[nH]c34)cc2)n1` gave a TGI of 36.8 µM.
On to `Cn1cc(C2=C(c3ccc(OC[C@@H](O)CO)cc3)C(=O)NC2=O)c2ccccc21`, for which the GI50 is above 25 µM and the TGI was above 25 µM.
Regarding `O=C1c2ccccc2-c2c1c1cc3c(cc1c(=O)n2CCCCl)OCO3`, the GI50 was 18.4 µM and the TGI came to 45.7 µM.
For `COc1nc2c(cc1S(=O)(=O)c1ccccc1)CCc1c-2cnn1-c1ccccc1Cl`, the GI50 is 7.28 µM and the TGI is above 100 µM.

The test system of a further test is HCT-15 colon. The experiment in a line: NCI tumour cell line growth inhibition, 48 h.
Take `Cc1cccc(C(C)(C)C)c1NC(=O)C(=O)Cc1nc2ccccc2s1`: the TGI is above 100 µM.
As to `CC(=O)OCCc1cccnc1/C=N/O`, the TGI was above 100 µM.
With `CCC1CCC2CCCC(C)N12` (stereo not drawn), the TGI is above 100 µM.
`CN1CCCNCCN(CCc2ccccn2)CCCN(C)CC1` gave a TGI above 62.6 µM.
Take `CC1=C(CCCOC(=O)NCCCl)C2=C(C)C3(CC3)[C@@](C)(O)C(=O)C2=C1`: the GI50 is 2.84 µM and the TGI is above 100 µM.
As for `C[C@]12CCC(=O)C=C1CC[C@@H]1C2CC[C@]2(C)NC(=O)C(C#N)CC12` (stereo partly drawn), the TGI was above 100 µM.
As to `CN=C1NC(=O)/C(=C/c2ccc3ncccc3c2)S1`, the GI50 was 6.09 µM and the TGI was above 25 µM.
Compound `O=C(O)c1cc(S(=O)(=O)N=NC=C2c3ccccc3N(O)c3ccccc32)ccc1O` came in with a TGI of 21.2 µM.
With `O=c1[nH]c(=O)n(C2CC(O)C(CO)O2)cc1C#Cc1c(F)c(F)c(F)c(F)c1F` (stereo not drawn), the TGI is above 100 µM.
Still for that read-out and setting: for `O=S(=O)(O)C(O)/C=C/c1ccccc1` (stereo not drawn) the value was above 100 µM.
Regarding `NS(=O)(=O)c1ccc(-n2nc(-c3ccc(Br)cc3)ccc2=O)cc1`, the GI50 is above 10 µM and the TGI is above 10 µM.
On to `S=C1NCCN1C1=Nc2ccccc2CO1`, for which the GI50 was above 100 µM and the TGI was above 100 µM.
`COc1cc2c(cc1O)[C@H](Cc1ccc(Oc3cc(C[C@H]4c5cc(OC)c(OC)cc5CCN4C)ccc3OC)cc1)NCC2` had a TGI of 21.4 µM.
The same measure, in the same setting: for `OCc1c(-c2cccc3ccccc23)sc(-c2cccc3ccccc23)c1CO` the value was 27.9 µM.
Regarding `COc1ccc(-n2cc(-c3ccc(OC)c(OC)c3)[nH]c2=S)cc1Cl`, the GI50 was above 100 µM and the TGI was above 100 µM.
Turning to `Clc1cccc(NC=Nc2ccc(-c3nc4ccccc4s3)cc2)c1`, the GI50 was 9.48 µM and the TGI is 20 µM.
In turn, `C[Si](C)(C)c1ccc(CC2(Cc3ccc([Si](C)(C)C)cc3)CCNC2)cc1` returned a TGI of 4.86 µM.
Same read-out and setting: for `Cc1cc(C)nc(NS(=O)(=O)c2ccc(NC(=O)c3cccc4c(=O)c5ccccc5[nH]c34)cc2)n1` the value was 46.3 µM.
Turning to `Cn1cc(C2=C(c3ccc(OC[C@@H](O)CO)cc3)C(=O)NC2=O)c2ccccc21`, the GI50 is above 25 µM and the TGI is above 25 µM.
Take `O=C1c2ccccc2-c2c1c1cc3c(cc1c(=O)n2CCCCl)OCO3`: the GI50 is above 100 µM and the TGI is above 100 µM.
For `COc1nc2c(cc1S(=O)(=O)c1ccccc1)CCc1c-2cnn1-c1ccccc1Cl`, the GI50 was 6.24 µM and the TGI is above 100 µM.

Another test relates to NCI-H460 lung. The experiment in a line: NCI tumour cell line growth inhibition, 48 h.
`Cc1cccc(C(C)(C)C)c1NC(=O)C(=O)Cc1nc2ccccc2s1` displayed a TGI above 100 µM.
In turn, `CC(=O)OCCc1cccnc1/C=N/O` displayed a TGI above 100 µM.
`CN1CCCNCCN(CCc2ccccn2)CCCN(C)CC1` yielded a TGI above 100 µM.
Regarding `CC1=C(CCCOC(=O)NCCCl)C2=C(C)C3(CC3)[C@@](C)(O)C(=O)C2=C1`, the GI50 was 2.42 µM and the TGI came out at 13.6 µM.
In turn, `C[C@]12CCC(=O)C=C1CC[C@@H]1C2CC[C@]2(C)NC(=O)C(C#N)CC12` (stereo partly drawn) registered a TGI above 100 µM.
